The text below walks through data of PubChem BioAssay AID1963845 (Molecular Pharmacology Branch, DTP, NCI, 2024).

One may read the viability, T/C as the ratio of treated to control.
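Note: luminescence signal used as surrogate measure of viable cells; spheroids exposed to compounds for seven days before readout; 100% = DMSO vehicle control viability as luminescence relative to vehicle.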

The subject of one assay is 429239-143-T-J1-PDC complex spheroid viability. Put plainly: Anticancer human tumor 429239-143-T-J1-PDC patient-derived small cell lung carcinoma cell line growth inhibition [POLQ]. The settings on record: second compound 10 µM; first compound 0.0316 µM; hits give low values. Put shortly:
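Patient-derived tumour cells were co-cultured with HUVEC and mesenchymal stem cells as multicellular spheroids at 37 °C. They were treated with POLQ inhibitors (novobiocin, ART-558, RP6685) alone or combined with other agents. Top concentrations were at or near clinical Cmax (otherwise 10 microM; SN-38 at 1 microM), decreasing in half-log steps.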
With `COc1cc2cc(C(=O)CCC(=O)O)sc2cc1OC` + Nc1ccc(C#CCN(C(=O)Cc2ncc(C(F)(F)F)cc2C(F)(F)F)c2ccc(F)cc2)nn1, the viability, T/C was 96.9%.
Regarding `O=C(Nc1ccc(O)c(NS(=O)(=O)c2ccc(F)cc2)c1)c1ccc(-c2ccccc2)cc1` + Nc1ccc(C#CCN(C(=O)Cc2ncc(C(F)(F)F)cc2C(F)(F)F)c2ccc(F)cc2)nn1, the viability, T/C was 102%.

The assay is the same for the next values; noted with them: second compound 10 µM; first compound 0.1 µM; hits give low values.
Turning to `C#Cc1c(F)ccc2cc(O)cc(-c3ncc4c(N5CC6CCC(C5)N6)nc(OCC56CCCN5CC(F)C6)nc4c3F)c12` (configuration not stated) + Nc1ccc(C#CCN(C(=O)Cc2ncc(C(F)(F)F)cc2C(F)(F)F)c2ccc(F)cc2)nn1, the viability, T/C was 106%.
On the same count and under the same terms, the result for `CC1COCCN1c1cc(C2(O)CC3CCC(C2)O3)c2cnn(-c3ccn[nH]3)c2n1` (configuration not stated) + Nc1ccc(C#CCN(C(=O)Cc2ncc(C(F)(F)F)cc2C(F)(F)F)c2ccc(F)cc2)nn1 reads 66.9%.
With `CCc1cc2c(N3CCc4c(cc(Cn5ccnc5)cc4-c4cn(C)nc4C(F)(F)F)C3=O)cc(C)nc2c(OC)n1` + Nc1ccc(C#CCN(C(=O)Cc2ncc(C(F)(F)F)cc2C(F)(F)F)c2ccc(F)cc2)nn1, the viability, T/C is 86.2%.
For `COc1cc2cc(C(=O)CCC(=O)O)sc2cc1OC` + Nc1ccc(C#CCN(C(=O)Cc2ncc(C(F)(F)F)cc2C(F)(F)F)c2ccc(F)cc2)nn1, the viability, T/C was 105%.
Regarding `O=C(Nc1ccc(O)c(NS(=O)(=O)c2ccc(F)cc2)c1)c1ccc(-c2ccccc2)cc1` + Nc1ccc(C#CCN(C(=O)Cc2ncc(C(F)(F)F)cc2C(F)(F)F)c2ccc(F)cc2)nn1, the viability, T/C is 96.6%.

Staying with this assay, now noted: second compound 10 µM; first compound 0.316 µM; hits give low values.
`C#Cc1c(F)ccc2cc(O)cc(-c3ncc4c(N5CC6CCC(C5)N6)nc(OCC56CCCN5CC(F)C6)nc4c3F)c12` (configuration not stated) + Nc1ccc(C#CCN(C(=O)Cc2ncc(C(F)(F)F)cc2C(F)(F)F)c2ccc(F)cc2)nn1: the viability, T/C is 97.4%.
Consider `CC1COCCN1c1cc(C2(O)CC3CCC(C2)O3)c2cnn(-c3ccn[nH]3)c2n1` (configuration not stated) + Nc1ccc(C#CCN(C(=O)Cc2ncc(C(F)(F)F)cc2C(F)(F)F)c2ccc(F)cc2)nn1, for which the viability, T/C is 36.4%.
`CCc1cc2c(N3CCc4c(cc(Cn5ccnc5)cc4-c4cn(C)nc4C(F)(F)F)C3=O)cc(C)nc2c(OC)n1` + Nc1ccc(C#CCN(C(=O)Cc2ncc(C(F)(F)F)cc2C(F)(F)F)c2ccc(F)cc2)nn1: the viability, T/C is 84.2%.
With `COc1cc2cc(C(=O)CCC(=O)O)sc2cc1OC` + Nc1ccc(C#CCN(C(=O)Cc2ncc(C(F)(F)F)cc2C(F)(F)F)c2ccc(F)cc2)nn1, the viability, T/C is 108%.
For `O=C(Nc1ccc(O)c(NS(=O)(=O)c2ccc(F)cc2)c1)c1ccc(-c2ccccc2)cc1` + Nc1ccc(C#CCN(C(=O)Cc2ncc(C(F)(F)F)cc2C(F)(F)F)c2ccc(F)cc2)nn1, the viability, T/C is 103%.

The assay is the same for the next values; noted with them: second compound 10 µM; first compound 1 µM; hits give low values.
Regarding `C#Cc1c(F)ccc2cc(O)cc(-c3ncc4c(N5CC6CCC(C5)N6)nc(OCC56CCCN5CC(F)C6)nc4c3F)c12` (configuration not stated) + Nc1ccc(C#CCN(C(=O)Cc2ncc(C(F)(F)F)cc2C(F)(F)F)c2ccc(F)cc2)nn1, the viability, T/C was 102%.
Regarding `CC1COCCN1c1cc(C2(O)CC3CCC(C2)O3)c2cnn(-c3ccn[nH]3)c2n1` (configuration not stated) + Nc1ccc(C#CCN(C(=O)Cc2ncc(C(F)(F)F)cc2C(F)(F)F)c2ccc(F)cc2)nn1, the viability, T/C is 6.28%.
For `CCc1cc2c(N3CCc4c(cc(Cn5ccnc5)cc4-c4cn(C)nc4C(F)(F)F)C3=O)cc(C)nc2c(OC)n1` + Nc1ccc(C#CCN(C(=O)Cc2ncc(C(F)(F)F)cc2C(F)(F)F)c2ccc(F)cc2)nn1, the viability, T/C is 79.3%.
`COc1cc2cc(C(=O)CCC(=O)O)sc2cc1OC` + Nc1ccc(C#CCN(C(=O)Cc2ncc(C(F)(F)F)cc2C(F)(F)F)c2ccc(F)cc2)nn1: the viability, T/C was 98.2%.
As for `O=C(Nc1ccc(O)c(NS(=O)(=O)c2ccc(F)cc2)c1)c1ccc(-c2ccccc2)cc1` + Nc1ccc(C#CCN(C(=O)Cc2ncc(C(F)(F)F)cc2C(F)(F)F)c2ccc(F)cc2)nn1, the viability, T/C was 93.7%.

Still in this assay, the particulars now being: second compound 10 µM; first compound 3.16 µM; hits give low values.
As to `C#Cc1c(F)ccc2cc(O)cc(-c3ncc4c(N5CC6CCC(C5)N6)nc(OCC56CCCN5CC(F)C6)nc4c3F)c12` (configuration not stated) + Nc1ccc(C#CCN(C(=O)Cc2ncc(C(F)(F)F)cc2C(F)(F)F)c2ccc(F)cc2)nn1, the viability, T/C was 101%.
Still for that read-out and setting: the result for `CC1COCCN1c1cc(C2(O)CC3CCC(C2)O3)c2cnn(-c3ccn[nH]3)c2n1` (configuration not stated) + Nc1ccc(C#CCN(C(=O)Cc2ncc(C(F)(F)F)cc2C(F)(F)F)c2ccc(F)cc2)nn1 reads 3.88%; that for `CCc1cc2c(N3CCc4c(cc(Cn5ccnc5)cc4-c4cn(C)nc4C(F)(F)F)C3=O)cc(C)nc2c(OC)n1` + Nc1ccc(C#CCN(C(=O)Cc2ncc(C(F)(F)F)cc2C(F)(F)F)c2ccc(F)cc2)nn1, 64.6%.
As for `COc1cc2cc(C(=O)CCC(=O)O)sc2cc1OC` + Nc1ccc(C#CCN(C(=O)Cc2ncc(C(F)(F)F)cc2C(F)(F)F)c2ccc(F)cc2)nn1, the viability, T/C was 99.9%.
On the same count and under the same terms, the figure for `O=C(Nc1ccc(O)c(NS(=O)(=O)c2ccc(F)cc2)c1)c1ccc(-c2ccccc2)cc1` + Nc1ccc(C#CCN(C(=O)Cc2ncc(C(F)(F)F)cc2C(F)(F)F)c2ccc(F)cc2)nn1 is 95.1%.

The assay is the same for the next values; noted with them: second compound 10 µM; first compound 10 µM; hits give low values.
On to `C#Cc1c(F)ccc2cc(O)cc(-c3ncc4c(N5CC6CCC(C5)N6)nc(OCC56CCCN5CC(F)C6)nc4c3F)c12` (configuration not stated) + Nc1ccc(C#CCN(C(=O)Cc2ncc(C(F)(F)F)cc2C(F)(F)F)c2ccc(F)cc2)nn1, for which the viability, T/C was 90.5%.
Take `CC1COCCN1c1cc(C2(O)CC3CCC(C2)O3)c2cnn(-c3ccn[nH]3)c2n1` (configuration not stated) + Nc1ccc(C#CCN(C(=O)Cc2ncc(C(F)(F)F)cc2C(F)(F)F)c2ccc(F)cc2)nn1: the viability, T/C is 2.51%.
`CCc1cc2c(N3CCc4c(cc(Cn5ccnc5)cc4-c4cn(C)nc4C(F)(F)F)C3=O)cc(C)nc2c(OC)n1` + Nc1ccc(C#CCN(C(=O)Cc2ncc(C(F)(F)F)cc2C(F)(F)F)c2ccc(F)cc2)nn1: the viability, T/C was 29.9%.
Turning to `COc1cc2cc(C(=O)CCC(=O)O)sc2cc1OC` + Nc1ccc(C#CCN(C(=O)Cc2ncc(C(F)(F)F)cc2C(F)(F)F)c2ccc(F)cc2)nn1, the viability, T/C was 98.3%.
Same read-out and setting: the figure for `O=C(Nc1ccc(O)c(NS(=O)(=O)c2ccc(F)cc2)c1)c1ccc(-c2ccccc2)cc1` + Nc1ccc(C#CCN(C(=O)Cc2ncc(C(F)(F)F)cc2C(F)(F)F)c2ccc(F)cc2)nn1 is 96.3%.
